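How tested: cells in 96-well plates exposed to compound for 48 hours at five concentrations. GI50 = concentration required for 50% inhibition of growth.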 Activity calls are given as the source filed them. Cut-off read from the data, not from the text of the source: active = GI50 up to about 1.1 µM and inactive = higher.
Assays:
Assay in all cases: DTP human tumour cell line panel, 48 h
ACHN = test system: ACHN
BT-549 = test system: BT-549
COLO 205 = test system: COLO 205
HL-60 = test system: HL-60
HOP-62 = test system: HOP-62
HT-29 = test system: HT-29
K562 = test system: K562
MDA-MB-435 = test system: MDA-MB-435
MDA-N = test system: MDA-N
Malme-3M = test system: Malme-3M
NCI/ADR-RES = test system: NCI/ADR-RES
OVCAR-3 = test system: OVCAR-3
PC-3 = test system: PC-3
SF-268 = test system: SF-268
SF-539 = test system: SF-539
SK-MEL-28 = test system: SK-MEL-28
SN12C = test system: SN12C
T47D = test system: T47D
U-251 = test system: U-251
UO-31 = test system: UO-31

SMILES	GI50 (ACHN)	GI50 (BT-549)	GI50 (COLO 205)	GI50 (HL-60)	GI50 (HOP-62)	GI50 (HT-29)	GI50 (K562)	GI50 (MDA-MB-435)	GI50 (MDA-N)	GI50 (Malme-3M)	GI50 (NCI/ADR-RES)	GI50 (OVCAR-3)	GI50 (PC-3)	GI50 (SF-268)	GI50 (SF-539)	GI50 (SK-MEL-28)	GI50 (SN12C)	GI50 (T47D)	GI50 (U-251)	GI50 (UO-31)
Oc1ccc[nH]c1=[Se]	48.6 µM (inactive)	55.1 µM (inactive)	18.7 µM (inactive)	> 100 µM (inactive)	29.1 µM (inactive)	> 100 µM (inactive)	36.2 µM (inactive)	41.8 µM (inactive)	57 µM (inactive)	50.1 µM (inactive)	55.1 µM (inactive)	> 100 µM (inactive)	> 100 µM (inactive)	76.2 µM (inactive)	54.6 µM (inactive)	71.1 µM (inactive)	48.2 µM (inactive)	22.4 µM (inactive)	32.7 µM (inactive)	83.2 µM (inactive)
Cc1csc(CP(=O)(OC(C)C)OC(C)C)n1	> 100 µM (inactive)	> 100 µM (inactive)	> 100 µM (inactive)	> 100 µM (inactive)	> 100 µM (inactive)	> 100 µM (inactive)	> 100 µM (inactive)	> 100 µM (inactive)	> 100 µM (inactive)	> 100 µM (inactive)	> 100 µM (inactive)	> 100 µM (inactive)	> 100 µM (inactive)	> 100 µM (inactive)	> 100 µM (inactive)	> 100 µM (inactive)	> 100 µM (inactive)	> 100 µM (inactive)	> 100 µM (inactive)	74 µM (inactive)
NC(CCC(=O)NC(CSCC1C(=O)Nc2ccccc21)C(=O)NCC(=O)O)C(=O)O (stereo not given)	7.41 µM (inactive)	6.79 µM (inactive)	5.12 µM (inactive)	23.6 µM (inactive)	11.9 µM (inactive)	6.78 µM (inactive)	1.6 µM (inactive)	6.31 µM (inactive)	6.37 µM (inactive)	6.3 µM (inactive)	7.53 µM (inactive)	5.62 µM (inactive)	21.6 µM (inactive)	5.92 µM (inactive)	6 µM (inactive)	6.58 µM (inactive)	5.86 µM (inactive)	9.4 µM (inactive)	7.62 µM (inactive)	0.466 µM (active)
c1nc(NCCc2c[nH]cn2)c2nc[nH]c2n1	> 100 µM (inactive)	> 100 µM (inactive)	> 100 µM (inactive)	26.7 µM (inactive)	> 100 µM (inactive)	> 100 µM (inactive)	> 100 µM (inactive)	> 100 µM (inactive)	> 100 µM (inactive)	> 100 µM (inactive)	> 100 µM (inactive)	> 100 µM (inactive)	> 100 µM (inactive)	> 100 µM (inactive)	> 100 µM (inactive)	> 100 µM (inactive)	> 100 µM (inactive)	> 100 µM (inactive)	> 100 µM (inactive)	> 100 µM (inactive)

From ChEMBL document CHEMBL1201862, “PubChem BioAssay data set” (2004)
